Consider 26 compounds from ChEMBL document CHEMBL3596121, “Naphthalene and 2,3-dihydrobenzo[b][1,4]dioxine derivatives with extended side chains as new scaffolds of CB2-selective ligands” (Medchemcomm, 2014).

For assay [1], the target named is T1, Cannabinoid receptor 1 (Homo sapiens, UniProt P21554). In words: Displacement of human recombinant CB1 receptor expressed in HEK293 cell membranes incubated for 90 mins by radioligand binding assay. The class given is cell-based.
Assay [2] has as its target T1, Cannabinoid receptor 1. In words: Displacement of human recombinant CB1 receptor expressed in HEK293 cell membranes incubated for 90 mins by Cheng-Prusoff equation based analysis.
Assay [3] deals with T2, Cannabinoid receptor 2 (Homo sapiens, UniProt P34972). In words: Displacement of human recombinant CB2 receptor expressed in HEK293 cell membranes incubated for 90 mins by radioligand binding assay. The class given is cell-based.
T2 sequence (P34972 whole entry): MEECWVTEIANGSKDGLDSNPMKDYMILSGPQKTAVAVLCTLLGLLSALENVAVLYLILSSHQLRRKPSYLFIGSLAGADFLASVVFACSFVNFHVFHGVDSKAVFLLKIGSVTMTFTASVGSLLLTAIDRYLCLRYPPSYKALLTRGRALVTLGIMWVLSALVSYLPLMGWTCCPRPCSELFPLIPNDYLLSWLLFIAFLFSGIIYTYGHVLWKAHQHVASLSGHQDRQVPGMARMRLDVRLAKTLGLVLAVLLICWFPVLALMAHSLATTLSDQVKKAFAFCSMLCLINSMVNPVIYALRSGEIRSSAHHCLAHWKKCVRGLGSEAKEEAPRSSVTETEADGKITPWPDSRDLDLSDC
Assay [4] concerns the target T2, Cannabinoid receptor 2. Nature of the assay: Displacement of human recombinant CB2 receptor expressed in HEK293 cell membranes incubated for 90 mins by Cheng-Prusoff equation based analysis.
Assay [5] has as its target T1, Cannabinoid receptor 1. To be noted: HEK293, at 10 µM.
Description: Maximum displacement of human recombinant CB1 receptor expressed in HEK293 cell membranes at 10 uM incubated for 90 mins by radioligand binding assay
Assay [6] deals with T2, Cannabinoid receptor 2. The following applies: HEK293, at 10 µM.
Description: Maximum displacement of human recombinant CB2 receptor expressed in HEK293 cell membranes at 10 uM incubated for 90 mins by radioligand binding assay
Another assay relates to HEK293. Nature of the assay: Selectivity index, ratio of Ki for human recombinant CB1 receptor expressed in HEK293 cell membranes to Ki for human recombinant CB2 receptor expressed in HEK293 cell membranes. The class given is cell-based.

T1 sequence (P21554 whole entry): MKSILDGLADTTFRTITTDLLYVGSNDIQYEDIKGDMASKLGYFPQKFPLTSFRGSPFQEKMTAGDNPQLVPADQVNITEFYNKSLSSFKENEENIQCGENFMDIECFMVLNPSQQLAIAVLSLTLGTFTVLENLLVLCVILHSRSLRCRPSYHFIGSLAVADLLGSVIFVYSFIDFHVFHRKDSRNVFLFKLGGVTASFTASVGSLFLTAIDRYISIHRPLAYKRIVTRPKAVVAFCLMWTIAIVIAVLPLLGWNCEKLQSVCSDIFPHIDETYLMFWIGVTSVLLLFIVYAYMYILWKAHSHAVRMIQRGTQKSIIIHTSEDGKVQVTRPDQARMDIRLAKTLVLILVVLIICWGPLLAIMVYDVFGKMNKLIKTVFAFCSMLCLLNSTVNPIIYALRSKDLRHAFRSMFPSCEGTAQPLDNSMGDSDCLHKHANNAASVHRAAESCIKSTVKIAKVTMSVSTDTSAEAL

Broadly, the IC50 is the concentration needed to halve the response being measured. As a reminder, the Ki is the dissociation constant of the complex between target and ligand, obtained from inhibition or displacement. As for `O=C(/C=C/C=C/c1ccc2c(c1)-c1ccccc1C2)NCCO`, the half-maximal inhibitory concentration (IC50) at Cannabinoid receptor 1 [1] and at Cannabinoid receptor 2 [3] was over 10 µM throughout. Also, the inhibition constant Ki at Cannabinoid receptor 1 [2] and on Cannabinoid receptor 2 [4] was over 10 µM each time. Besides, the figures for the Imax at Cannabinoid receptor 1 [5] and at Cannabinoid receptor 2 [6] were 0% and 24.2%, respectively.
On to `CCS(=O)(=O)NCCCCCOc1cccc2ccccc12`, for which the IC50 at Cannabinoid receptor 1 [1] and at Cannabinoid receptor 2 [3] was over 10 µM each time. Besides, the inhibition constant Ki at Cannabinoid receptor 1 [2] and on Cannabinoid receptor 2 [4] was over 10 µM each time. Further, the Imax on Cannabinoid receptor 1 [5] stood at 7.86%; on Cannabinoid receptor 2 [6], 30.9%.
Take `CCNC(=O)NCCCCCSc1ccc2ccccc2c1`: the IC50 at Cannabinoid receptor 1 [1] was over 10 µM; on Cannabinoid receptor 2 [3], 2.11 µM. Further, the Ki was over 10 µM on Cannabinoid receptor 1 [2] and 0.56 µM on Cannabinoid receptor 2 [4]. The Ratio Ki with HEK293 was over 17.9. For the same compound, in the assay with HEK293, the log(ratioKi) stood at 1.3. Also, the Imax at Cannabinoid receptor 1 [5] is 16.9%; at Cannabinoid receptor 2 [6], 68.2%.
In the case of `NC(=O)NCCCCCOc1ccc2c(c1)OCO2`, the IC50 at Cannabinoid receptor 1 [1] and on Cannabinoid receptor 2 [3] was over 10 µM each time. Moreover, the Ki on Cannabinoid receptor 1 [2] and on Cannabinoid receptor 2 [4] was over 10 µM throughout. Moreover, the results for the Imax on Cannabinoid receptor 1 [5] and on Cannabinoid receptor 2 [6] were 2.39% and 22.1%, respectively.
On to `NC(=O)NCCCCCOc1cccc2ccccc12`, for which the IC50 at Cannabinoid receptor 1 [1] and on Cannabinoid receptor 2 [3] was over 10 µM each time. Further, the Ki on Cannabinoid receptor 1 [2] and at Cannabinoid receptor 2 [4] was over 10 µM each time. Further, the Imax on Cannabinoid receptor 1 [5] came to 6.88%; at Cannabinoid receptor 2 [6] it was 4.6%.
With `CCS(=O)(=O)NCCCCCOc1ccc2c(c1)OCO2`, the concentration for half-maximal inhibition (IC50) at Cannabinoid receptor 1 [1] and at Cannabinoid receptor 2 [3] was over 10 µM each time. Moreover, the Ki on Cannabinoid receptor 1 [2] and at Cannabinoid receptor 2 [4] was over 10 µM in each case. Also, the values for the Imax on Cannabinoid receptor 1 [5] and on Cannabinoid receptor 2 [6] were 3.37% and 29.5%, respectively.
Turning to `CCCC(C)(C)c1ccc2c(c1)OC(C)(C)[C@@H]1CC=C(C)C[C@@H]21`, the IC50 on Cannabinoid receptor 1 [1] was over 10 µM; at Cannabinoid receptor 2 [3], 0.55 µM. Moreover, the figures for the inhibition constant Ki on Cannabinoid receptor 1 [2] and on Cannabinoid receptor 2 [4] were over 10 µM and 0.14 µM, respectively. The Ratio Ki in the assay with HEK293 is over 71.4. Moreover, the figures for the Imax on Cannabinoid receptor 1 [5] and on Cannabinoid receptor 2 [6] were under 50% and 50%, respectively.
As for `CCS(=O)(=O)NCCCCCSc1ccc2ccccc2c1`, the IC50 at Cannabinoid receptor 1 [1] is over 10 µM; at Cannabinoid receptor 2 [3], 5.02 µM. In addition, the Ki at Cannabinoid receptor 1 [2] was over 10 µM; on Cannabinoid receptor 2 [4], 1.32 µM. For the same compound, the Ratio Ki in the assay with HEK293 is over 7.58. Further, the Imax at Cannabinoid receptor 1 [5] is 23.6%; on Cannabinoid receptor 2 [6], 63.3%.
Turning to `CCOC(=O)CNC(=O)/C=C/C=C/c1ccc2c(c1)-c1ccccc1C2`, the 50% inhibitory concentration (IC50) at Cannabinoid receptor 1 [1] and on Cannabinoid receptor 2 [3] was over 10 µM each time. In addition, the Ki on Cannabinoid receptor 1 [2] and at Cannabinoid receptor 2 [4] was over 10 µM throughout. For the same compound, the results for the Imax on Cannabinoid receptor 1 [5] and at Cannabinoid receptor 2 [6] were 5.47% and 39.1%, respectively.
On to `CCNC(=O)NCCCCCOc1cccc2ccccc12`, for which the half-inhibitory concentration (IC50) at Cannabinoid receptor 1 [1] and at Cannabinoid receptor 2 [3] was over 10 µM in each case. The inhibition constant (Ki) at Cannabinoid receptor 1 [2] and on Cannabinoid receptor 2 [4] was over 10 µM in each case. The Imax at Cannabinoid receptor 1 [5] was 18.5%; on Cannabinoid receptor 2 [6], 23.8%.
In the case of `CCOC(=O)CNC(=O)/C=C/C=C/c1ccc2c(c1)OCCO2`, the concentration for half-maximal inhibition (IC50) at Cannabinoid receptor 1 [1] was over 10 µM; on Cannabinoid receptor 2 [3], 9.69 µM. The results for the inhibitory constant (Ki) at Cannabinoid receptor 1 [2] and at Cannabinoid receptor 2 [4] were over 10 µM and 2.56 µM, respectively. Besides, the Ratio Ki with HEK293 was over 3.9. Besides, the Imax was 4.77% at Cannabinoid receptor 1 [5] and 55.1% on Cannabinoid receptor 2 [6].
In the case of `O=C(CCCCCOc1ccc2ccccc2c1)NC1CC1`, the half-maximal inhibitory concentration (IC50) at Cannabinoid receptor 1 [1] and on Cannabinoid receptor 2 [3] was over 10 µM in each case. The Ki at Cannabinoid receptor 1 [2] and on Cannabinoid receptor 2 [4] was over 10 µM each time. Further, the Imax at Cannabinoid receptor 1 [5] came to 44.8%; at Cannabinoid receptor 2 [6], 31.4%.
On to `O=C(/C=C/C=C/c1ccc2ccccc2c1)NCCO`, for which the values for the half-inhibitory concentration (IC50) at Cannabinoid receptor 1 [1] and on Cannabinoid receptor 2 [3] were over 10 µM and 4.81 µM, respectively. Further, the Ki was over 10 µM on Cannabinoid receptor 1 [2] and 1.27 µM at Cannabinoid receptor 2 [4]. The Ratio Ki with HEK293 is over 7.87. The values for the Imax at Cannabinoid receptor 1 [5] and on Cannabinoid receptor 2 [6] were 4.91% and 54.6%, respectively.
Consider `CCOC(=O)CNC(=O)CCCCCOc1cccc2ccccc12`, for which the IC50 on Cannabinoid receptor 1 [1] and at Cannabinoid receptor 2 [3] was over 10 µM each time. Further, the Ki at Cannabinoid receptor 1 [2] and at Cannabinoid receptor 2 [4] was over 10 µM in each case. The Imax on Cannabinoid receptor 1 [5] was 27.7%; on Cannabinoid receptor 2 [6], 0%.
On to `O=C(CCCCCOc1ccc2ccccc2c1)NCCO`, for which the IC50 at Cannabinoid receptor 1 [1] and at Cannabinoid receptor 2 [3] was over 10 µM each time. For the same compound, the Ki at Cannabinoid receptor 1 [2] and at Cannabinoid receptor 2 [4] was over 10 µM throughout. Besides, the figures for the Imax at Cannabinoid receptor 1 [5] and at Cannabinoid receptor 2 [6] were 3.65% and 3.6%, respectively.
In the case of `CCOC(=O)CNC(=O)/C=C/C=C/c1ccc2ccccc2c1`, the IC50 at Cannabinoid receptor 1 [1] and on Cannabinoid receptor 2 [3] was over 10 µM throughout. The Ki on Cannabinoid receptor 1 [2] and on Cannabinoid receptor 2 [4] was over 10 µM each time. Besides, the Imax on Cannabinoid receptor 1 [5] came to 2.24%; at Cannabinoid receptor 2 [6], 48.5%.
As for `CCS(=O)(=O)NCCCCCOc1ccc2ccccc2c1`, the IC50 on Cannabinoid receptor 1 [1] and at Cannabinoid receptor 2 [3] was over 10 µM in each case. Besides, the Ki at Cannabinoid receptor 1 [2] and on Cannabinoid receptor 2 [4] was over 10 µM in each case. Further, the results for the Imax at Cannabinoid receptor 1 [5] and at Cannabinoid receptor 2 [6] were 11.9% and 23.7%, respectively.
Turning to `CCOC(=O)CNC(=O)CCCCCOc1ccc2ccccc2c1`, the half-inhibitory concentration (IC50) on Cannabinoid receptor 1 [1] and on Cannabinoid receptor 2 [3] was over 10 µM in each case. In addition, the Ki on Cannabinoid receptor 1 [2] and on Cannabinoid receptor 2 [4] was over 10 µM each time. Also, the Imax on Cannabinoid receptor 1 [5] came out at 6.46%; on Cannabinoid receptor 2 [6], 25.5%.
`CCNC(=O)NCCCCCOc1ccc2c(c1)OCO2`: the concentration for half-maximal inhibition (IC50) on Cannabinoid receptor 1 [1] and at Cannabinoid receptor 2 [3] was over 10 µM each time. Moreover, the Ki on Cannabinoid receptor 1 [2] and on Cannabinoid receptor 2 [4] was over 10 µM each time. In addition, the Imax at Cannabinoid receptor 1 [5] amounted to 3.38%; at Cannabinoid receptor 2 [6] it was 22.6%.
As to `O=C(CCCCCOc1cccc2ccccc12)NCCO`, the half-inhibitory concentration (IC50) at Cannabinoid receptor 1 [1] and at Cannabinoid receptor 2 [3] was over 10 µM in each case. Also, the inhibitory constant (Ki) on Cannabinoid receptor 1 [2] and on Cannabinoid receptor 2 [4] was over 10 µM each time. The Imax at Cannabinoid receptor 1 [5] was 27%; on Cannabinoid receptor 2 [6], 14.8%.
As for `CCNC(=O)NCCCCCOc1ccc2ccccc2c1`, the IC50 at Cannabinoid receptor 1 [1] and at Cannabinoid receptor 2 [3] was over 10 µM throughout. Further, the inhibitory constant (Ki) at Cannabinoid receptor 1 [2] and at Cannabinoid receptor 2 [4] was over 10 µM each time. Moreover, the results for the Imax at Cannabinoid receptor 1 [5] and on Cannabinoid receptor 2 [6] were 9.27% and 27.1%, respectively.
`O=C(/C=C/C=C/c1ccc2c(c1)-c1ccccc1C2)NC1CC1`: the half-inhibitory concentration (IC50) at Cannabinoid receptor 1 [1] and on Cannabinoid receptor 2 [3] was over 10 µM throughout. Further, the inhibitory constant (Ki) on Cannabinoid receptor 1 [2] and on Cannabinoid receptor 2 [4] was over 10 µM each time. The Imax at Cannabinoid receptor 1 [5] stood at 13.6%; on Cannabinoid receptor 2 [6], 36.1%.
For `O=C(/C=C/C=C/c1ccc2c(c1)OCCO2)NC1CC1`, the IC50 at Cannabinoid receptor 1 [1] and on Cannabinoid receptor 2 [3] was over 10 µM throughout. Further, the Ki at Cannabinoid receptor 1 [2] and at Cannabinoid receptor 2 [4] was over 10 µM in each case. In addition, the Imax worked out at 6.18% on Cannabinoid receptor 1 [5] and 26.5% at Cannabinoid receptor 2 [6].
For `O=C(/C=C/C=C/c1ccc2ccccc2c1)NC1CC1`, the 50% inhibitory concentration (IC50) at Cannabinoid receptor 1 [1] is over 10 µM; at Cannabinoid receptor 2 [3], 3.02 µM. The results for the inhibition constant (Ki) at Cannabinoid receptor 1 [2] and on Cannabinoid receptor 2 [4] were over 10 µM and 0.81 µM, respectively. Further, the Ratio Ki in the assay with HEK293 was over 12.2. Further, the figures for the Imax on Cannabinoid receptor 1 [5] and at Cannabinoid receptor 2 [6] were 18.5% and 58.5%, respectively.
Regarding `CC1(Cc2ccccc2)COc2cc(C(=O)N3CCCCC3)ccc21` (centres undefined), the inhibition constant Ki at Cannabinoid receptor 1 [2] was over 10 µM. Moreover, the log(ratioKi) in the assay with HEK293 was 1.37.
With `O=C(CCCCCOc1cccc2ccccc12)NC1CC1`, the IC50 at Cannabinoid receptor 1 [1] and at Cannabinoid receptor 2 [3] was over 10 µM throughout. For the same compound, the inhibition constant Ki at Cannabinoid receptor 1 [2] and at Cannabinoid receptor 2 [4] was over 10 µM each time. For the same compound, the Imax on Cannabinoid receptor 1 [5] amounted to 24.7%; on Cannabinoid receptor 2 [6], 27.8%.
